Data published in ChEMBL document CHEMBL4507295 (2021).

How the values were obtained:
[1] = molecular target: TGF-beta receptor type-1 (Homo sapiens) (UniProt P36897); settings: Compound concentration 1000.0 nM
[2] = molecular target: Cysteinyl leukotriene receptor 1 (Homo sapiens) (UniProt Q9Y271); experiment: Inhibition of Leukotriene, Cysteinyl CysLT1 at 10 µM in the Eurofins-Panlabs radioligand binding assay (Eurofins_assay_250460); parameters: ligand concentration 0.3 nM, non-specific ligand with concentration 0.3 µM Leukotriene D4, incubation time 30 min, incubation temperature 25 °C; settings: Compound concentration 10.0 uM
Homo sapiens [3] = species: Homo sapiens; experiment: Inhibition of Phosphodiesterase PDE4 at compound concentration of 10.0 uM in the Eurofins-Panlabs enzyme assay (Eurofins_assay_154000); type: protein assay; parameters: substrate with concentration 1.01 uM [3 H]cAMP + cAMP, incubation time 20 min, incubation temperature 25 C; settings: Compound concentration […]
[4] = molecular target: Calcitonin receptor (Homo sapiens) (UniProt P30988); experiment: Inhibition of Calcitonin at 10 µM in the Eurofins-Panlabs radioligand binding assay (Eurofins_assay_213610); settings: Compound concentration 10.0 uM
[5] = molecular target: Melanocortin receptor 3 (Homo sapiens) (UniProt P41968); experiment: Inhibition of Melanocortin MC3 at 10 µM in the Eurofins-Panlabs radioligand binding assay (Eurofins_assay_251300); parameters: ligand concentration 0.035 nM; settings: Compound concentration 10.0 uM
[6] = molecular target: T1, 5-hydroxytryptamine receptor 3A (Homo sapiens) (UniProt P46098); experiment: Inhibition of Serotonin (5-Hydroxytryptamine) 5-HT3 at 10 µM in the Eurofins-Panlabs radioligand binding assay (Eurofins_assay_271910); parameters: ligand concentration 0.69 nM; settings: Compound concentration 10.0 uM
T1 sequence (whole entry): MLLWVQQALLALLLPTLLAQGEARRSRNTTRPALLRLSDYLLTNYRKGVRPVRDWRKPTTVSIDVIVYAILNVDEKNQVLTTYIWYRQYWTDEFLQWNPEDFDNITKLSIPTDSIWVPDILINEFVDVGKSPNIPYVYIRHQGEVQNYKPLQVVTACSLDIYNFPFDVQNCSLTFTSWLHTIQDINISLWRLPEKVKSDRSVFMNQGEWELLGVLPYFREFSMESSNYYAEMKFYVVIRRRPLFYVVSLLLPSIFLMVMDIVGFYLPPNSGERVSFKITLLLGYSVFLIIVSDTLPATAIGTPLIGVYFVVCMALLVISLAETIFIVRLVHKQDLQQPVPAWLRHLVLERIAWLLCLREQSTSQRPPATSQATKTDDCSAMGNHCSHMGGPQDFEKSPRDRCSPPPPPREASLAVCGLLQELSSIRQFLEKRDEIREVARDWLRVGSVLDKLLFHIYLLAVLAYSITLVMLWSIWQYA

[7] = molecular target: 5-hydroxytryptamine receptor 4 (Homo sapiens) (UniProt Q13639); experiment: Inhibition of Serotonin (5-Hydroxytryptamine) 5-HT4 at 10 µM in the Eurofins-Panlabs radioligand binding assay (Eurofins_assay_272000); settings: Cavia porcellus; Compound concentration 10.0 uM
[8] = molecular target: Substance-K receptor (Homo sapiens) (UniProt P21452); experiment: Inhibition of Tachykinin NK2 at 10 µM in the Eurofins-Panlabs radioligand binding assay (Eurofins_assay_255600); parameters: ligand concentration 0.5 nM; settings: Compound concentration 10.0 uM
[9] = molecular target: Delta-type opioid receptor (Homo sapiens) (UniProt P41143); experiment: Opiate delta (OP1, DOP) Eurofins-Panlabs radioligand binding assay; settings: Compound concentration 10.0 uM
[10] = molecular target: Cathepsin G (Homo sapiens) (UniProt P08311); experiment: Inhibition of Peptidase, CTSG (Cathepsin G) at 10 µM in the Eurofins-Panlabs enzyme assay (Eurofins_assay_112510); parameters: substrate with concentration; settings: Compound concentration 10.0 uM
[11] = molecular target: Histamine H4 receptor (Homo sapiens) (UniProt Q9H3N8); experiment: Histamine H4 Eurofins-Panlabs radioligand binding assay; settings: Compound concentration 10.0 uM
[12] = molecular target: Peroxisome proliferator-activated receptor alpha (Homo sapiens) (UniProt Q07869); experiment: PPARalpha Eurofins-Panlabs radioligand binding assay; settings: Compound concentration 10.0 uM
[13] = molecular target: Thyrotropin-releasing hormone receptor (Homo sapiens) (UniProt P34981); experiment: Thyrotropin Releasing Hormone (TRH) Eurofins-Panlabs radioligand binding assay; parameters: ligand concentration 3 nM; settings: Rattus norvegicus; Compound concentration 10.0 uM
Caspase-6 (Homo sapiens) = Caspase-6 (Homo sapiens) (UniProt P55212); experiment: Peptidase, CASP6 (Caspase 6) Eurofins-Panlabs enzyme assay; parameters: substrate with concentration; settings: Compound concentration 10.0 uM
[14] = molecular target: Insulin receptor (Homo sapiens) (UniProt P06213); experiment: Protein Tyrosine Kinase, Insulin Receptor Eurofins-Panlabs enzyme assay; parameters: substrate with concentration 10 µg/mL […], incubation time 60 min, incubation temperature 25 °C; settings: Compound concentration 10.0 uM
[15] = molecular target: Type-1 angiotensin II receptor (Homo sapiens) (UniProt P30556); experiment: Angiotensin AT1 Eurofins-Panlabs radioligand binding assay; settings: Compound concentration 10.0 uM
Homo sapiens [16] = species: Homo sapiens; experiment: Calcitonin Gene-Related Peptide CGRP1 Eurofins-Panlabs radioligand binding assay; type: protein-complex assay; settings: Compound concentration 10.0 uM
Rattus norvegicus [17] = species: Rattus norvegicus; experiment: Potassium Channel [SKCA] Eurofins-Panlabs radioligand binding assay; parameters: ligand concentration 0.005 nM; settings: Compound concentration 10.0 uM
[18] = molecular target: Prostaglandin D2 receptor (Homo sapiens) (UniProt Q13258); experiment: Prostanoid DP Eurofins-Panlabs radioligand binding assay; settings: Compound concentration 10.0 uM
Rattus norvegicus [19] = species: Rattus norvegicus; experiment: Serotonin (5-Hydroxytryptamine) 5-HT2, Non-Selective Eurofins-Panlabs radioligand binding assay; type: protein assay; settings: Compound concentration 10.0 uM
[20] = molecular target: Sodium-dependent serotonin transporter (Homo sapiens) (UniProt P31645); experiment: Transporter, Serotonin (5- Hydroxytryptamine) (SERT) Eurofins-Panlabs radioligand binding assay; parameters: ligand concentration 0.15 nM, non-specific ligand with concentration 10 µM Imipramine, incubation time 3 h, incubation temperature 4 °C; settings: Compound concentration 10.0 uM
[21] = molecular target: hERG (KCNH2) potassium channel (Homo sapiens, UniProt Q12809); experiment: Potassium Channel hERG Eurofins-Panlabs radioligand binding assay; parameters: ligand concentration 0.05 nM, non-specific ligand with concentration 1 µM L-706,000, incubation time 75 min, incubation temperature 25 °C; settings: HEK-293 cells expressing recombinant human hERG, probe [S35] L-706,000 (radioligand, 0.05 nM), compound concentration 10 uM
[22] = molecular target: Adenosine receptor A3 (Homo sapiens) (UniProt P0DMS8); settings: Compound concentration 10.0 uM
[23] = molecular target: Endothelin-1 receptor (Homo sapiens) (UniProt P25101); settings: Compound concentration 10.0 uM
[24] = molecular target: Endothelin receptor type B (Homo sapiens) (UniProt P24530); settings: Compound concentration 10.0 uM
[25] = molecular target: Muscarinic acetylcholine receptor M2 (Homo sapiens) (UniProt P08172); settings: Compound concentration 10.0 uM
[26] = molecular target: GABA-A receptor; anion channel (Rattus norvegicus) (UniProt O09028+P15431+P18506+P18508+P19969+P20236+P23574+P23576+P28471+P28473+P30191+P62813+P63079+P63138+Q91ZM7+Q9ES14); settings: Compound concentration 10.0 uM
[27] = molecular target: T2, Muscarinic acetylcholine receptor M4 (Homo sapiens) (UniProt P08173); settings: Compound concentration 10.0 uM
T2 sequence (whole entry): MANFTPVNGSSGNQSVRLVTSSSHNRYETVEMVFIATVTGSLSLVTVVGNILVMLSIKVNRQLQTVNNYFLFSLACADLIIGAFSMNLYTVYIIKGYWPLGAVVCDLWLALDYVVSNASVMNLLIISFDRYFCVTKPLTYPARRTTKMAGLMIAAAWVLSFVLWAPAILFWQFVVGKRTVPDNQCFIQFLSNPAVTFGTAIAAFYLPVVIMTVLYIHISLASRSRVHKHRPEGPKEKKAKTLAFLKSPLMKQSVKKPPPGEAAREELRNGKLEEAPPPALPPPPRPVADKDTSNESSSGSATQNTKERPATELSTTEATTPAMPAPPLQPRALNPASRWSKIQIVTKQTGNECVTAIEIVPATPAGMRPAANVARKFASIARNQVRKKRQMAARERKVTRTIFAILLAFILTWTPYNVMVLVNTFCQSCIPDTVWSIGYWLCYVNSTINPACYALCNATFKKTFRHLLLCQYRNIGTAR

Cathepsin G (Homo sapiens), sequence (P08311 whole entry): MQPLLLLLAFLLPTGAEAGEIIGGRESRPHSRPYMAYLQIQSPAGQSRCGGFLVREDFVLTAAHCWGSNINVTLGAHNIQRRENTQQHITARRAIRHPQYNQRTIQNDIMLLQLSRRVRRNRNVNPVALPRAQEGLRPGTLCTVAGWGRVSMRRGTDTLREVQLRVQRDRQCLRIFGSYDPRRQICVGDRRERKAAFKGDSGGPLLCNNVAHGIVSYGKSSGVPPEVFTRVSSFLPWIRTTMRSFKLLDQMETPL
Histamine H4 receptor (Homo sapiens), sequence (Q9H3N8 whole entry): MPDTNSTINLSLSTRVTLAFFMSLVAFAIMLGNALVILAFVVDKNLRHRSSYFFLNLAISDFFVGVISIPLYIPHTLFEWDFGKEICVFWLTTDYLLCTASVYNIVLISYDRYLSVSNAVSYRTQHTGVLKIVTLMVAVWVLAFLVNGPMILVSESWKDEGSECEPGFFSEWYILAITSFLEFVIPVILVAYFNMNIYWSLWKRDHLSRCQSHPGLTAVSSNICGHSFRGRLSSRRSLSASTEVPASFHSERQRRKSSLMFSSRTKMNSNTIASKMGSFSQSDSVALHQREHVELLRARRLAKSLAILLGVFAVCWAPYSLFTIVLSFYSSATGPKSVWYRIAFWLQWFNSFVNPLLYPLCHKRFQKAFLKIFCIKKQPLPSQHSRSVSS
Cysteinyl leukotriene receptor 1 (Homo sapiens), sequence (Q9Y271 whole entry): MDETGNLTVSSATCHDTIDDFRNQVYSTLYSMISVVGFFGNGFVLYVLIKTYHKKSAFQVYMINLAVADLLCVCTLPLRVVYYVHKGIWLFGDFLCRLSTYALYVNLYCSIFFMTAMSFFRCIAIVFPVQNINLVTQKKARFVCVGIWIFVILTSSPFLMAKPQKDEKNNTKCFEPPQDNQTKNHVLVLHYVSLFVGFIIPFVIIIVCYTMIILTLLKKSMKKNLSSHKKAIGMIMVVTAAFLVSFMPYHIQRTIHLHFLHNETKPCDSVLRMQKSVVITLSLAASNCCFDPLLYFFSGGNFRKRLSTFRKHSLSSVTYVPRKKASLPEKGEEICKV
Calcitonin receptor (Homo sapiens), sequence (P30988 whole entry): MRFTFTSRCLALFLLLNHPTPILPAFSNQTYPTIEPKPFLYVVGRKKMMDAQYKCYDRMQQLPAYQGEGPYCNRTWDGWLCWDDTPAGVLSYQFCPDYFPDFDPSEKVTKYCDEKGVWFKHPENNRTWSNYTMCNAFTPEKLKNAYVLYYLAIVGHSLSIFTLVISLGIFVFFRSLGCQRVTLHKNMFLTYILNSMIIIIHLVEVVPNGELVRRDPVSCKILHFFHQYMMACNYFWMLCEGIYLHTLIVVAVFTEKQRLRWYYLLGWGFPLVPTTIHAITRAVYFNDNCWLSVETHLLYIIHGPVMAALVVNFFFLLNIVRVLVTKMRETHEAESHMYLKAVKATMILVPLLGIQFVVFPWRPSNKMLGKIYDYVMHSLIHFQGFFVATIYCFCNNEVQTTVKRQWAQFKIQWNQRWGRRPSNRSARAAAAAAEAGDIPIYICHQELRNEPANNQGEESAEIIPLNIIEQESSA
Insulin receptor (Homo sapiens), sequence (P06213 28-758 limits assumed): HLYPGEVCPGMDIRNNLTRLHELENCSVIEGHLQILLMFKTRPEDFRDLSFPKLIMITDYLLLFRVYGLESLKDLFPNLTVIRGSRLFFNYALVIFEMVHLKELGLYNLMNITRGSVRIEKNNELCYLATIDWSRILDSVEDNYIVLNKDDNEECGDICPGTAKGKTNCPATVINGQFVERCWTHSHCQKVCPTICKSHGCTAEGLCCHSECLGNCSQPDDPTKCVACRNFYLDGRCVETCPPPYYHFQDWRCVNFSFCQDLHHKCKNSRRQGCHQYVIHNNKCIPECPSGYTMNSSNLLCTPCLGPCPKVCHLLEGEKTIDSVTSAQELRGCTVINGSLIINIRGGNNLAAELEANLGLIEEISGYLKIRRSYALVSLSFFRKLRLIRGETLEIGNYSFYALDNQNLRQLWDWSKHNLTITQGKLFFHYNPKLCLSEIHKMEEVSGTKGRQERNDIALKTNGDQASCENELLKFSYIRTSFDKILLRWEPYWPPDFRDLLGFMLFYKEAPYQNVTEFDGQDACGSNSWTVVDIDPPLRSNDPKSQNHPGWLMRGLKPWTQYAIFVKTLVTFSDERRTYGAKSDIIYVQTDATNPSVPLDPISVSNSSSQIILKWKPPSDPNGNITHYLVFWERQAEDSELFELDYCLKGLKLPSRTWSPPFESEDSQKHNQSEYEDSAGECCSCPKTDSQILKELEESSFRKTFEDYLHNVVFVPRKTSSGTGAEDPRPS
Insulin receptor (Homo sapiens), sequence (P06213 763-1382 limits assumed): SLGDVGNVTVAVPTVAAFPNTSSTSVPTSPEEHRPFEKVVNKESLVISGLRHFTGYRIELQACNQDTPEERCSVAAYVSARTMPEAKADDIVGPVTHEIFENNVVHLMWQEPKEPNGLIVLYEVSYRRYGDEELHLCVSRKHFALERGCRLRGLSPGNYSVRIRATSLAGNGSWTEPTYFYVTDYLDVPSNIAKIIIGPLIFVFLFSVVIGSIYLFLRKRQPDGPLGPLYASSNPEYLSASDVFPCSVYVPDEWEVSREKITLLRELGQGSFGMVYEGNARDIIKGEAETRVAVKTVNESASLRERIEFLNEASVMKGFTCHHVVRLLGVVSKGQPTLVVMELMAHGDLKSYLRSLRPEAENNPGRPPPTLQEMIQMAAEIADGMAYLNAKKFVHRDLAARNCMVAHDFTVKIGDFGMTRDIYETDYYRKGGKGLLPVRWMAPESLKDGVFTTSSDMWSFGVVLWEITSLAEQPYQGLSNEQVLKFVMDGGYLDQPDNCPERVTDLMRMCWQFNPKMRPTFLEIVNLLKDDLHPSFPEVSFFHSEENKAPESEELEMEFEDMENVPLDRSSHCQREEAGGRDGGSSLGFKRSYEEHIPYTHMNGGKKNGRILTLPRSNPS
Endothelin receptor type B (Homo sapiens), sequence (P24530 whole entry): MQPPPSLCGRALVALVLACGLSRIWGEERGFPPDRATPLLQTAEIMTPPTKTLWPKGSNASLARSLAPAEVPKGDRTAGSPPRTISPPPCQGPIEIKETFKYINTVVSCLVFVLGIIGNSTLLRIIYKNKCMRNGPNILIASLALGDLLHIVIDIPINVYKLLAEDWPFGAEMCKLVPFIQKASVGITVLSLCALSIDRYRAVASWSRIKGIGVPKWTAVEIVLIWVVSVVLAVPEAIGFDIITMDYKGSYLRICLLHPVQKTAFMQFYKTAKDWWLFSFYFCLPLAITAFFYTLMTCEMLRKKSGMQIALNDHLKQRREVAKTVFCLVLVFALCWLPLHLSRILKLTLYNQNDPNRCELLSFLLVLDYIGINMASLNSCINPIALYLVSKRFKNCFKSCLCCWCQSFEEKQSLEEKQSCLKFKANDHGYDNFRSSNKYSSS
Prostaglandin D2 receptor (Homo sapiens), sequence (Q13258 whole entry): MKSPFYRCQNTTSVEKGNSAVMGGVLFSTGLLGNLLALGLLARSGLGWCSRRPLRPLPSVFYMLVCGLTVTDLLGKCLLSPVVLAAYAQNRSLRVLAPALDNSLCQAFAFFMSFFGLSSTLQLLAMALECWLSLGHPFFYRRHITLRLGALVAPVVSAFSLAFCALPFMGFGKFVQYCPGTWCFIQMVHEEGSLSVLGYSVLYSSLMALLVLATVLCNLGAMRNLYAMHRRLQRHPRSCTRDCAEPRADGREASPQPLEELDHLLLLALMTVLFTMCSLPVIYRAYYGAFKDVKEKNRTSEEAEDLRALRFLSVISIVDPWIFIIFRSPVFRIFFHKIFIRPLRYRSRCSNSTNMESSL
Type-1 angiotensin II receptor (Homo sapiens), sequence (P30556 whole entry): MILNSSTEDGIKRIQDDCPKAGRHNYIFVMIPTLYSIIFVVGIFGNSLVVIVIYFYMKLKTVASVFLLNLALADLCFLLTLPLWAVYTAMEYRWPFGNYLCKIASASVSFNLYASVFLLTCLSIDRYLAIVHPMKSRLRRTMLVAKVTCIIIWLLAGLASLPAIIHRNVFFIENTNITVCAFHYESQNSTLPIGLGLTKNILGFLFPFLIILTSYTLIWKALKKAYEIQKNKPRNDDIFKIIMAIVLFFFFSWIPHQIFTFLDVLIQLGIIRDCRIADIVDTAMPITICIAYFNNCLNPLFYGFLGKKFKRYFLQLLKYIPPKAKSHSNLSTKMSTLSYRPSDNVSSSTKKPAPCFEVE
Peroxisome proliferator-activated receptor alpha (Homo sapiens), sequence (Q07869 whole entry): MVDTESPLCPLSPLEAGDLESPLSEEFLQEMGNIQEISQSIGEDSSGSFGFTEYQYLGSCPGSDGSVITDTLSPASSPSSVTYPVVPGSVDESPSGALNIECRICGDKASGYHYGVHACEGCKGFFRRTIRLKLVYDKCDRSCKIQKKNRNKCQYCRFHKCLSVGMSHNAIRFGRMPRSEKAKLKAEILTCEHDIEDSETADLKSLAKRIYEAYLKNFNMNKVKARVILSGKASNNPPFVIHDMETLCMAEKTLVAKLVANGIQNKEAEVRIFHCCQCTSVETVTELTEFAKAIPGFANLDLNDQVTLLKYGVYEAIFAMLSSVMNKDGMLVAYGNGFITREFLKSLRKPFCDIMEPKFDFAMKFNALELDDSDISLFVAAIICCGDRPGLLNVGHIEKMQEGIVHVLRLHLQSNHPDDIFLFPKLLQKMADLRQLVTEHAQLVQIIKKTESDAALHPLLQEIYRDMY
TGF-beta receptor type-1 (Homo sapiens), sequence (P36897 whole entry): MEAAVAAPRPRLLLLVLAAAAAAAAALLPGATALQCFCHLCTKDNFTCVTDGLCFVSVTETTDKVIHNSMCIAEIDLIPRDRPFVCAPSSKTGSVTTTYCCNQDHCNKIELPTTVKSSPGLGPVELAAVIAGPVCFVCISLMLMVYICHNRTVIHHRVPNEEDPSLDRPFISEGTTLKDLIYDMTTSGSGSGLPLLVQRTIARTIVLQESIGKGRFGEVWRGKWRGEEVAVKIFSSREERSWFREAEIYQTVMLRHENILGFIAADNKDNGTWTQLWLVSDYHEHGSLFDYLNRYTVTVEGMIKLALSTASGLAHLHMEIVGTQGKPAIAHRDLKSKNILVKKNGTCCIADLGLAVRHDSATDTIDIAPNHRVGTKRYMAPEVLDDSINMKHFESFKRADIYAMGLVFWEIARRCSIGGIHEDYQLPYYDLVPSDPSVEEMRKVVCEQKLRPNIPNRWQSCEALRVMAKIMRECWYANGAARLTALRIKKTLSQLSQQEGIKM

For `N#CC1(c2ccccn2)CCN(Cc2cc(C(=O)N3CCCC3)c(=O)n3ccccc23)CC1`, the residual activity [1] was 72%.

`N#CC1(c2ccccn2)CCN(Cc2cc(C(=O)O)c(=O)n3ccccc23)CC1` [MSD-M1PAM] showed an inhibition [2] of -5%, an inhibition (Homo sapiens [3]) of 8% and an inhibition [4] of -5%. The inhibition [5] was 1%, the inhibition [6] was 17% and the inhibition [7] was 6%. The inhibition [8] was 9%, the inhibition [9] was 19% and the inhibition [10] was 10%. It also gave an inhibition [11] of 11%, an inhibition [12] of 11% and an inhibition [13] of 13%. The inhibition (Caspase-6 (Homo sapiens)) was 13%, the inhibition [14] was 1% and the inhibition [15] was -8%. It also gave an inhibition (Homo sapiens [16]) of -6%, an inhibition (Rattus norvegicus [17]) of -10% and an inhibition [18] of 29%. For the same compound, the inhibition (Rattus norvegicus [19]) was 0%, the inhibition [20] was 9% and the inhibition at 75 min, 10 µM [21] was 5% (not active). For the same compound, the inhibition [22] was -3%, the inhibition [23] was -1% and the inhibition [24] was -10%. It also gave an inhibition [25] of 2%, an inhibition [26] of 18% and an inhibition [27] of 0%.
